# Assay results taken from ChEMBL document CHEMBL5537163, “Discovery of Novel Phenoxyaryl Pyridones as Bromodomain and Extra-Terminal Domain (BET) Inhibitors with High Selectivity for the Second Bromodomain (BD2) to Potentially Treat Acute Myeloid Leukemia” (J Med Chem, 2024).
# How the values were obtained:
# [1] = target: T1, Voltage-gated inwardly rectifying potassium channel KCNH2 (Homo sapiens, UniProt Q12809); test: Inhibition of hERG in HEK293 cells at -80 mV holding potential by automated patch clamp electrophysiology; type: toxicity, cell-based
# [2] = target: T2, Bromodomain testis-specific protein (Homo sapiens, UniProt Q58F21); test: Inhibition of BRDT BD2 (unknown origin) using biotinylated tetra-acetylated H4 peptide SGRG-K(Ac)-GG-K(Ac)-GLG-K(Ac)-GGA-K(Ac)-RHRK-Biotin as substrate incubated for 1 hr by TR-FRET assay
# [3] = target: T2, Bromodomain testis-specific protein; test: Inhibition of BRDT BD1 (unknown origin) using biotinylated tetra-acetylated H4 peptide SGRG-K(Ac)-GG-K(Ac)-GLG-K(Ac)-GGA-K(Ac)-RHRK-Biotin as substrate incubated for 1 hr by TR-FRET assay
# [4] = target: T3, Bromodomain-containing protein 3 (Homo sapiens, UniProt Q15059); test: Inhibition of BRD3 BD2 (unknown origin) using biotinylated tetra-acetylated H4 peptide SGRG-K(Ac)-GG-K(Ac)-GLG-K(Ac)-GGA-K(Ac)-RHRK-Biotin as substrate incubated for 1 hr by TR-FRET assay
# [5] = target: T4, Bromodomain-containing protein 2 (Homo sapiens, UniProt P25440); test: Inhibition of BRD2 BD2 (unknown origin) using biotinylated tetra-acetylated H4 peptide SGRG-K(Ac)-GG-K(Ac)-GLG-K(Ac)-GGA-K(Ac)-RHRK-Biotin as substrate incubated for 1 hr by TR-FRET assay
# [6] = target: T4, Bromodomain-containing protein 2; test: Inhibition of BRD2 BD1 (unknown origin) using biotinylated tetra-acetylated H4 peptide SGRG-K(Ac)-GG-K(Ac)-GLG-K(Ac)-GGA-K(Ac)-RHRK-Biotin as substrate incubated for 1 hr by TR-FRET assay
# [7] = target: T3, Bromodomain-containing protein 3; test: Inhibition of BRD3 BD1 (unknown origin) using biotinylated tetra-acetylated H4 peptide SGRG-K(Ac)-GG-K(Ac)-GLG-K(Ac)-GGA-K(Ac)-RHRK-Biotin as substrate incubated for 1 hr by TR-FRET assay
# [8] = target: T1, Voltage-gated inwardly rectifying potassium channel KCNH2; test: Inhibition of hERG expressed in HEK293 cells at -80 mV holding potential by whole-cell patch clamp technique; type: toxicity, cell-based
# MOLM-13 = test: Antiproliferative activity against human MOLM-13 cells assessed as inhibition of cell proliferation incubated for 72 hrs by CellTiterGlo luminescence assay; type: functional, cell-based; conditions: MOLM-13, 72 h
# MV4-11 [9] = test: Antitumor activity against human MV4-11 cells xenografted in BALB/c nude mouse assessed as tumor growth inhibition at 37.5 mg/kg, po administered once daily for 21 days and measured every other day relative to control; type: functional; conditions: MV4-11, 504 h, time 21 day, read-out: TGI
# MV4-11 [10] = test: Antiproliferative activity against human MV4-11 cells assessed as inhibition of cell proliferation incubated for 72 hrs by CellTiterGlo luminescence assay; type: functional, cell-based; conditions: MV4-11, 72 h
# T1 sequence (Q12809 whole entry): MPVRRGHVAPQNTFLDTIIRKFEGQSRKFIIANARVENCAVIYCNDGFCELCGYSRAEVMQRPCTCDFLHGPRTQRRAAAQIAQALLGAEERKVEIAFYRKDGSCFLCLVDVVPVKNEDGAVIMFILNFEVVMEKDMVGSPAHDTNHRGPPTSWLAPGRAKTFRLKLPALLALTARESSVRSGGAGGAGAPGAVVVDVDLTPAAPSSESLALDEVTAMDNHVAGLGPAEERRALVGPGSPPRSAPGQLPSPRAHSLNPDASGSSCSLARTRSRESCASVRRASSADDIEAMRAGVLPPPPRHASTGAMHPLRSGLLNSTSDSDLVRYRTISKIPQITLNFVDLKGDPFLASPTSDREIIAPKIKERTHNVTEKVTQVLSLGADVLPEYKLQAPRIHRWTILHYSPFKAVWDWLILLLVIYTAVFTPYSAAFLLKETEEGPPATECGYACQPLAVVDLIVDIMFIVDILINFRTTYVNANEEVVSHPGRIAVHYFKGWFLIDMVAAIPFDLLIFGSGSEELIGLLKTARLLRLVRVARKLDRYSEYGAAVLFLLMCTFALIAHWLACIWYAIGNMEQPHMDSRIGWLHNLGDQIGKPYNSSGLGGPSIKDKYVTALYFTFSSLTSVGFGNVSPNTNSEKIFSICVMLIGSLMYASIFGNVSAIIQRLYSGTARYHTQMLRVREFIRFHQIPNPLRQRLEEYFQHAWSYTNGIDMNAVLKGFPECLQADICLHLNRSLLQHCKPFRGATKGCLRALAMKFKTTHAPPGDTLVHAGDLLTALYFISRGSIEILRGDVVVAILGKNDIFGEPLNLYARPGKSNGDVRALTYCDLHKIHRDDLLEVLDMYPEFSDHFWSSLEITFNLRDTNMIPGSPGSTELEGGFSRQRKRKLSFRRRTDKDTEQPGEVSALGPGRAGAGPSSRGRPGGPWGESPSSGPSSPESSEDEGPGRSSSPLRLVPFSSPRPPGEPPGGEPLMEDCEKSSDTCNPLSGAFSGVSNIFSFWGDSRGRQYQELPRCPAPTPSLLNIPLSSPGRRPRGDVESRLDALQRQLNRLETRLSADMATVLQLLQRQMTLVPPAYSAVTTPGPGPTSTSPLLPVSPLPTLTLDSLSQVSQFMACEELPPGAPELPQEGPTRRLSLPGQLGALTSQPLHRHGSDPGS
# T3 sequence (Q15059 whole entry): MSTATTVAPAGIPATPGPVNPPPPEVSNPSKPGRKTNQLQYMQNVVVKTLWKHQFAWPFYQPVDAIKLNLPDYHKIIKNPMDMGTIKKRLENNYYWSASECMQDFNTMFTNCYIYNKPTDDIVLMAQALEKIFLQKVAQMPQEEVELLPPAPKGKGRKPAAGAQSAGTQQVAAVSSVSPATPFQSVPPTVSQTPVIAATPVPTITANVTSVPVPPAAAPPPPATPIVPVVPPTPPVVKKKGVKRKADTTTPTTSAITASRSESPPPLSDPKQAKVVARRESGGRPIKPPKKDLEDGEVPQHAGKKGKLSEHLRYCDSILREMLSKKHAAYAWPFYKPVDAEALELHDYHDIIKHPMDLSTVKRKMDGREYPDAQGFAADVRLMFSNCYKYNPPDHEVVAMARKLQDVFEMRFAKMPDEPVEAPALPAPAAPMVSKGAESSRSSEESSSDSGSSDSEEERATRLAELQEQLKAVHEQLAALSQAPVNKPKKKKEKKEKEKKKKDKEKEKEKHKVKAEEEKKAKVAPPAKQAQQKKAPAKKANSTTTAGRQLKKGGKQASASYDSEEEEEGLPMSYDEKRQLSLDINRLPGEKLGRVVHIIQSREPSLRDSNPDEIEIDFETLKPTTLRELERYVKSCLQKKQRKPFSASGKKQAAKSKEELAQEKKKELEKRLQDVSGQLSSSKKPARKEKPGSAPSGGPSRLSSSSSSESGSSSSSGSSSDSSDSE
# T4 sequence (P25440 whole entry): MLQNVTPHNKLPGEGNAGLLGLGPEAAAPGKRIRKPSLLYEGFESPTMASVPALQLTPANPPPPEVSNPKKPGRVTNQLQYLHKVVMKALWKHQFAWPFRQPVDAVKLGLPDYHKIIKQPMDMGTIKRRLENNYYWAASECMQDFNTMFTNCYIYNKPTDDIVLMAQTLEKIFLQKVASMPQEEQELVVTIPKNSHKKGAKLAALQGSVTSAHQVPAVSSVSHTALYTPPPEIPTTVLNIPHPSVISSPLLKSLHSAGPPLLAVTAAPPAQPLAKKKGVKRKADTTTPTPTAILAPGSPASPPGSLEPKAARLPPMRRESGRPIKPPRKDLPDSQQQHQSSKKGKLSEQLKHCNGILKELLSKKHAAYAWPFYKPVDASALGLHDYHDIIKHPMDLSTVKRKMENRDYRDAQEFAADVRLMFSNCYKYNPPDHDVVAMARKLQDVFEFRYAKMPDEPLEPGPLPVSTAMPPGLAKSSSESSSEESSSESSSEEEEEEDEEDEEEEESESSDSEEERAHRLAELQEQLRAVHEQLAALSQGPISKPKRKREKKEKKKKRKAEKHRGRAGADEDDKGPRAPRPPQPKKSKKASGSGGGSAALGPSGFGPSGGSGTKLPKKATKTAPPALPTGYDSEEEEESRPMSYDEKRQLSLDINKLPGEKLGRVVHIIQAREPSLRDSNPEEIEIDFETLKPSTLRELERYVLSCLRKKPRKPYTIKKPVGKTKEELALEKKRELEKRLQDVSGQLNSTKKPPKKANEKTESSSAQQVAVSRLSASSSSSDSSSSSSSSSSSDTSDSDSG
smiles,measurement,setting,value
CCNC(=O)COc1cc(=O)n(C)cc1-c1cc(C(C)(C)O)ccc1Oc1c(C)cccc1C,IC50,[1],> 30000 nM
Cc1cc(F)cc(C)c1Oc1ccc(C(C)(C)O)cc1-c1cn(C)c(=O)cc1NCC(=O)N1CCOCC1,IC50,[2],9.7 nM
same,IC50,[3],4390 nM
same,IC50,[4],15.9 nM
same,IC50,[5],11.1 nM
same,IC50,[6],13500 nM
same,IC50,[1],> 30000 nM
same,IC50,[7],12800 nM
CCNC(=O)c1cc2c(-c3cc(C(C)(C)O)ccc3Oc3c(C)cc(F)cc3C)cn(C)c(=O)c2[nH]1 [ABBV-744],IC50,[8],3100 nM
same,IC50,MOLM-13,39 nM
same,inhibition in vivo at 37.5 mg/kg,MV4-11 [9],55%
same,IC50,MV4-11 [10],15 nM
same,IC50,[1],2800 nM
